Experimental findings from US20090246169A1, “INDOLOPYRIDINES AS EG5 KINESIN MODULATORS” (priority 2006, published 2009) are described below.

SMILES strings stand for the structures.

For the assay, the system named is RKO p21 colon adenocarcinoma cells, uninduced (proliferating). Briefly: Alamar Blue cell viability assay, RKO p21 uninduced (proliferating). Particulars: Homo sapiens; anti-proliferative/cytotoxic activity, 72 hours, without Ponasterone A; read-out: −log EC50 [mol/l] RKO p21 uninduced (proliferating) (converted). The format is cell-based. On the procedure:
The anti-proliferative/cytotoxic activity of the compounds described herein can be tested on subclones of RKO human colon adenocarcinoma cells (Schmidt et al., Oncogene 19, 2423-2429; 2000) using the Alamar Blue cell viability assay (described in O'Brien et al. Eur J Biochem 267, 5421-5426, 2000). The compounds are dissolved as 10 mM solutions in DMSO and subsequently diluted in semi-logarithmic steps. DMSO dilutions are further diluted 1:100 into Dulbecco's modified Eagle's medium (DMEM) containing 10% fetal calf serum to a final concentration twice as much as the final concentration in the test. RKO subclones are seeded into 96 well flat bottom plates at a density of 4000 cells per well in a volume of 50 μl per well. 24 hours after seeding the 50 μl each of the compound dilutions in DMEM medium are added into each well of the 96 well plate. Each compound dilution is tested as triplicates. Wells containing untreated control cells are filled with 50 μl DMEM medium containing 1% DMSO. The cells are then incubated with the substances for 72 hours at 37° C. in a humidified atmosphere containing 5% carbon dioxide. To determine the viability of the cells, 10 μl of an Alamar Blue solution (Biosource) are added and the fluorescence is measured at an extinction of 544 nm and an emission of 590 nm. For the calculation of the cell viability the emission value from untreated cells is set as 100% viability and the emission rates of treated cells are set in relation to the values of untreated cells. Viabilities are expressed as % values. The Graphpad Prism program is used for the calculation of EC50 values for anti-proliferative/cytotoxic activity out of the obtained dose-response curves.
To determine the cell cycle specific mode of action, subclones of RKO colon adenocarcinoma cells (RKOp21 or RKOp27 as described by Schmidt et al. in Oncogene 19, 2423-2429; 2000) are seeded into 96 well flat bottom plates at a density of 16000 cells per well in a volume of 50 μl per well in DMEM growth medium with 10% FCS containing 10 μM Ponasterone A. 24 hours after seeding the 50 μl each of the compound dilutions in DMEM medium are added into each well of the 96-well plate. Each compound dilution is tested as triplicates. Wells containing untreated control cells are filled with 50 μl DMEM medium containing 1% DMSO. The cells are then incubated with the substances for 72 hours at 37° C. in a humidified atmosphere containing 5% carbon dioxide. To determine the viability of the cells, 10 μl of an Alamar Blue solution (Biosource) are added and the fluorescence is measured at an extinction of 544 nm and an emission of 590 nm. For the calculation of the cell viability the emission value from untreated cells is set as 100% viability and the emission rates of treated cells are set in relation to the values of untreated cells. Viabilities are expressed as % values. The Graphpad Prism program (GraphPad Software, Inc) is used for the calculation of EC50 values out of the obtained dose-response curves. Viability is compared of proliferating cells grown in the absence of the inducer Ponasterone A, versus viability of cells arrested by the expression of ectopic p27Kip1 induced by Ponasterone A.
Representative values for anti-proliferation/cytotoxicity [measured as −log EC50 (mol/l)] determined in the aforementioned assays follow from the following tables B1 and B2, in which the numbers of the compounds correspond to the numbers of the examples.
For orientation: Resazurin is reduced to fluorescent resorufin, in cell work by metabolically active cells.
For `CC[C@@]12Cc3c([nH]c4ccc(OC)cc34)[C@@H](c3ccccc3)N1C(=O)N(CCN(C)C)C2=O` (racemic) [Example 5, (3aSR,10RS)-2-(2-Dimethylamino-ethyl)-3a-ethyl-6-methoxy-10-phenyl-3a,4,9,10-tetrahydro-2,9,10a-triaza-cyclopenta[b]fluorene-1,3-dione], the EC50 is not above 1000 nM.

In the case of `COc1ccc2[nH]c3c(c2c1)C[C@@]1(C)C(=O)N(CCCNC(C)(C)C)C(=O)N1[C@@H]3c1ccccc1` (racemic) [Example 76, (3aSR, 10RS)-2-(3-tert-Butylamino-propyl)-6-methoxy-3a-methyl-10-phenyl-3a,4,9,10-tetrahydro-2,9,10a-triaza-cyclopenta[b] fluorene-1,3-dione], the EC50 is not above 1000 nM.

With `CNCCCN1C(=O)N2[C@H](c3ccccc3)c3[nH]c4ccc(OC)cc4c3C[C@@]2(C)C1=O` (racemic) [Example 73, (3aSR, 10RS)-6-Methoxy-3a-methyl-2-(3-methylamino-propyl)-10-phenyl-3a,4,9,10-tetrahydro-2,9,10a-triaza-cyclopenta[b]fluorene-1,3-dione], the EC50 was not above 1000 nM.

On to `C=CCNCCN1C(=O)N2[C@H](c3ccccc3)c3[nH]c4ccc(OC)cc4c3C[C@@]2(C)C1=O` (racemic) [Example 28, (3aSR, 10RS)-2-(2-Allyl-amino-ethyl)-6-methoxy-3a-methyl-10-phenyl-3a,4,9,10-tetrahydro-2,9,10a-triaza-cyclopenta[b]fluorene-1,3-dione], for which the EC50 is not above 1000 nM.

Regarding `C=CCN(C)CCN1C(=O)N2[C@H](c3ccccc3)c3[nH]c4ccc(OC)cc4c3C[C@@]2(C)C1=O` (racemic) [Example 37, (3aSR, 10RS)-2-[2-(Allyl-methyl-amino)-ethyl]-6-methoxy-3a-methyl-10-phenyl-3a,4,9,10-tetrahydro-2,9,10a-triaza-cyclopenta [b]fluorene-1,3-dione], the EC50 is not above 1000 nM.

As for `COc1ccc2[nH]c3c(c2c1)C[C@@]1(C)C(=O)N(CCCNC2CC2)C(=O)N1[C@@H]3c1ccccc1` (racemic) [Example 71, (3aSR, 10RS)-2-(3-Cyclo-propylamino-propyl)-6-methoxy-3a-methyl-10-phenyl-3a,4,9,10-tetrahydro-2,9,10a-triaza-cyclopenta[b] fluorene-1,3-dione], the EC50 was not above 1000 nM.

Consider `CCN(CCO)CCCN1C(=O)N2[C@H](c3ccccc3)c3[nH]c4ccc(OC)cc4c3C[C@@]2(C)C1=O` (racemic) [Example 55, (3aSR, 10RS)-2-{3-[Ethyl-(2-hydroxy-ethyl)-amino]-propyl}-6-methoxy-3a-methyl-10-phenyl-3a,4,9,10-tetrahydro-2,9,10a-triaza-cyclopenta[b]fluorene-1,3-dione], for which the EC50 is not above 1000 nM.

With `COc1ccc2[nH]c3c(c2c1)C[C@@]1(C)C(=O)N(CCCN2CCN(C(C)=O)CC2)C(=O)N1[C@@H]3c1ccccc1` (racemic) [Example 69, (3aSR, 10RS)-2-[3-(4-Acetyl-piperazin-1-yl)-propyl]-6-methoxy-3a-methyl-10-phenyl-3a,4,9,10-tetra-hydro-2,9,10a-triaza-cyclo-penta[b]fluorene-1,3-dione], the EC50 was not above 1000 nM.

In the case of `COc1ccc2[nH]c3c(c2c1)C[C@@]1(C)C(=O)N(CCCN2CCC(C)CC2)C(=O)N1[C@@H]3c1ccccc1` (racemic) [Example 66, (3aSR, 10RS)-6-Methoxy-3a-methyl-2-[3-(4-methyl-piperidin-1-yl)-propyl]-10-phenyl-3a,4,9,10-tetrahydro-2,9,10a-triaza-cyclopenta[b] fluorene-1,3-dione], the EC50 is not above 1000 nM.

As for `COc1ccc2[nH]c3c(c2c1)C[C@@]1(C)C(=O)N(CCCN(C)CCO)C(=O)N1[C@@H]3c1ccccc1` (racemic) [Example 46, (3aSR, 10RS)-2-{3-[(2-Hydroxy-ethyl)-methyl-amino]-propyl}-6-methoxy-3a-methyl-10-phenyl-3a,4,9,10-tetrahydro-2,9,10a-triaza-cyclopenta[b]fluorene-1,3-dione], the EC50 is not above 1000 nM.

`COc1ccc2[nH]c3c(c2c1)C[C@@]1(C)C(=O)N(CCCN2CCOCC2)C(=O)N1[C@@H]3c1ccccc1` (racemic) [Example 61, (3aSR, 10RS)-6-Methoxy-3a-methyl-2-(3-morpholin-4-yl-propyl)-10-phenyl-3a,4,9,10-tetrahydro-2,9,10a-triaza-cyclopenta[b]fluorene-1,3-dione]: the EC50 was not above 1000 nM.

For `COc1ccc2[nH]c3c(c2c1)C[C@@]1(C)C(=O)N(CCCNC2CCC2)C(=O)N1[C@@H]3c1ccccc1` (racemic) [Example 72, (3aSR, 10RS)-2-(3-Cyclo-butylamino-propyl)-6-methoxy-3a-methyl-10-phenyl-3a,4,9,10-tetrahydro-2,9,10a-triaza-cyclopenta[b] fluorene-1,3-dione], the EC50 is not above 1000 nM.

`COc1ccc2[nH]c3c(c2c1)C[C@@]1(C)C(=O)N(CCN2CC=CC2)C(=O)N1[C@@H]3c1ccccc1` (racemic) [Example 31, (3aSR, 10RS)-2-[2-(2,5-Dihydro-pyrrol-1-yl)-ethyl]-6-methoxy-3a-methyl-10-phenyl-3a,4,9,10-tetrahydro-2,9,10a-triaza-cyclopenta[b] fluorene-1,3-dione]: the EC50 is not above 1000 nM.

With `COc1ccc2[nH]c3c(c2c1)C[C@@]1(C)C(=O)N(CCCN2CC=CC2)C(=O)N1[C@@H]3c1ccccc1` (racemic) [Example 64, (3aSR, 10RS)-2-[3-(2,5-Dihydro-pyrrol-1-yl)-propyl]-6-methoxy-3a-methyl-10-phenyl-3a,4,9,10-tetrahydro-2,9,10a-triaza-cyclopenta [b]fluorene-1,3-dione], the EC50 was not above 1000 nM.

Turning to `C=CCN(C)CCCN1C(=O)N2[C@H](c3ccccc3)c3[nH]c4ccc(OC)cc4c3C[C@@]2(C)C1=O` (racemic) [Example 57, (3aSR, 10RS)-2-[3-(Allyl-methyl-amino)-propyl]-6-methoxy-3a-methyl-10-phenyl-3a,4,9,10-tetrahydro-2,9,10a-triaza-cyclopenta[b] fluorene-1,3-dione], the EC50 is not above 1000 nM.

Turning to `CCN(C)CCCN1C(=O)N2[C@H](c3ccccc3)c3[nH]c4ccc(OC)cc4c3C[C@@]2(C)C1=O` (racemic) [Example 53, (3aSR, 10RS)-2-[3-(Ethyl-methyl-amino)-propyl]-6-methoxy-3a-methyl-10-phenyl-3a,4,9,10-tetrahydro-2,9,10a-triaza-cyclopenta[b] fluorene-1,3-dione], the EC50 is not above 1000 nM.

Turning to `COc1ccc2[nH]c3c(c2c1)C[C@@]1(C)C(=O)N(CCNC(C)C)C(=O)N1[C@@H]3c1ccccc1` (racemic) [Example 19, (3aSR,10RS)-2-(2-Isopropylamino-ethyl)-6-methoxy-3a-methyl-10-phenyl-3a,4,9,10-tetrahydro-2,9,10a-triaza-cyclopenta[b]fluorene-1,3-dione], the EC50 was not above 1000 nM.

`COc1ccc2[nH]c3c(c2c1)C[C@@]1(C)C(=O)N(CCCNCCO)C(=O)N1[C@@H]3c1ccccc1` (racemic) [Example 75, (3aSR, 10RS)-2-[3-(2-Hydroxy-ethylamino)-propyl]-6-methoxy-3a-methyl-10-phenyl-3a,4,9,10-tetrahydro-2,9,10a-triaza-cyclopenta[b] fluorene-1,3-dione]: the EC50 was not above 1000 nM.

`C#CC(C)NCCN1C(=O)N2[C@H](c3ccccc3)c3[nH]c4ccc(OC)cc4c3C[C@@]2(C)C1=O` (stereo partly drawn) [Example 48, (3aSR, 10RS)-6-Methoxy-3a-methyl-2-[2-(R)-1-methyl-prop-2-ynylamino)-ethyl]-10-phenyl-3a,4,9,10-tetrahydro-2,9,10a-triaza-cyclopenta [b]fluorene-1,3-dione and (3aSR, 10RS)-6-Methoxy-3a-methyl-2-[2-(S)-1-methyl-prop-2-ynylamino)-ethyl]-10-phenyl-3a,4,9,10-tetra-hydro-2,9,10a-triaza-cyclo-penta[b]fluorene-1,3-dione]: the EC50 was not above 1000 nM.
